Measured values as given in US10654896B2, “FoxP3-binding peptides and uses thereof” (FUNDACIÓN PARA LA INVESTIGACIÓN MÉDICA APLICADA, priority 2016, dated 2020).
Where a SMILES comes first, the peptide text is derived from it. [ ]: non-standard residue; d: D form.

Legend:
[1] = Mouse liver microsomal stability; type: in vitro ADME; conditions: mouse liver microsomes; for remaining at 20 min, 1 μM: read-out: % Remaining after 20 min; for remaining at 1 h, 1 μM: 60 min, read-out: % Remaining after 60 min; for half-life: peptide 1 μM
[2] = Human liver microsomal stability; type: in vitro ADME; conditions: human liver microsomes; for remaining at 20 min, 1 μM: read-out: % Remaining after 20 min; for remaining at 1 h, 1 μM: 60 min, read-out: % Remaining after 60 min; for half-life: peptide 1 μM, read-out: t1/2
[3] = target: T1, FOXP3/FOXP3 homodimerization (Homo sapiens, UniProt Q9BZS1); assay: FOXP3/FOXP3 homodimerization inhibition (Alphascreen); type: biochemical
T1 construct: made in house; host or cells: E. coli BL21 (DE3)
T1 sequence (Q9BZS1 1-431): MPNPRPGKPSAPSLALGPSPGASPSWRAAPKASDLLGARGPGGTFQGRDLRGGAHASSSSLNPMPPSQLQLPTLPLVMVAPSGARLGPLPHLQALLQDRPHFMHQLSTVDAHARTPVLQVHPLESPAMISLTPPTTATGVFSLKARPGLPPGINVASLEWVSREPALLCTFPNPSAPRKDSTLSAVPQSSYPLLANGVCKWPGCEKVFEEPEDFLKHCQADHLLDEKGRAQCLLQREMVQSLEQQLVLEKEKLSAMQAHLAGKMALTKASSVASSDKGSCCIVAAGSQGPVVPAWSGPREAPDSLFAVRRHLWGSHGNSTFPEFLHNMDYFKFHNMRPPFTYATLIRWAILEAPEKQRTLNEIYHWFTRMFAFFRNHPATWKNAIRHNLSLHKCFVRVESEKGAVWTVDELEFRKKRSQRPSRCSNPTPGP
Description: Plasmid pET20b FOXP3-His was generated to produce the human FOXP3 tagged with 6 histidines at the C terminus of the protein. Briefly, plasmid pDEST15-FOXP3 (provided by Dr. Casal, Madrid, Spain) was used as template to amplify FOXP3 by PCR using the primers Upper FOXP3 Ndel catatgcccaaccccaggc (SEQ ID NO: 55) and Lower FOXP3 […] (SEQ ID NO: 56). The resulting fragment was subcloned in pET20b at Ndel and NotI sites. pET45b His-Runx1 was obtained by PCR of activated human CD4 T cells obtained from healthy volunteers (after the signature of an informed consent) using the primers Upper Runx1 atgcgtatccccgtagatg (SEQ ID NO: 57) and Lower Runx1 […] (SEQ ID NO: 58) and the fragment was cloned in pcDNA3.1. Then, pET45b and pcDNA3.1-Runx1 were digested with BamHI and NotI and ligated to obtain pET45b-Runx1. Plasmids were used to transform BL21 cells (DE3; Novagen, Schwalbach, Germany) for the expression of the recombinant protein. The transformed BL21 cells were grown in LB medium at 37° C. (1 liter of final culture medium) (with ampicilin 0.1 mg/ml). Once the OD of the culture was between 0.5 and 1.0, IPTG (0.4 mM, final concentration) was added. Bacteria were then cultured overnight in agitation and centrifuged for 10 min at 8000 rpm. Cell pellet was then resuspended in 4 ml Tris-HCl 0.1 M and frozen at −80° C. Cell pellet was then thawed and incubated with lisozyme (25 KU) and a protease inhibitor cocktail for 15 min at 30° C. before cell lysis induced with a French-press. The resultant pool was then centrifuged during 20 min at 11.000 rpm). The recombinant protein was purified from the soluble fraction of French-press cell extracts by affinity chromatography (Histrap, Pharmacia) following manufacturer's instructions and using an FPLC platform (AKTA, Pharmacia). Plasmid pDEST15-FOXP3 encoding the fusion protein GST-FOXP3 (GST fused to the isoform A from human FOXP3 gene), was transformed into BL21 cells for the expression of the recombinant protein. GST-FOXP3 protein was purified from the soluble fraction of cell extracts obtained, as described above, by affinity chromatography (GSTrap; Amersham, Piscataway, N.J.) using a fast protein liquid chromatography platform (AKTA; Amersham) following manufacturer's instructions. The eluted proteins were desalted using Hitrap desalting columns (Pharmacia) and analyzed by SDS-PAGE using Coomassie blue (Bio-Safe Coomassie reagent; Bio-Rad, Hercules, Calif.) and by Western blot.
It has been described that dimerization of FOXP3 is required for its function as a transcriptional regulator. Moreover, interaction between FOXP3 and the transcription factor Runx1, is crucially required for normal hematopoiesis including thymic T-cell development, but also for Treg suppressor activity (Reviewed in Lozano et al, Front Oncol. 2013, 3:294). Both activities are mediated by the intermediate region of Foxp3, which is the area of interaction between P60 and Foxp3. Thus, we studied the effect of P60 and their mutants on the FOXP3/Runx1 heterodimerization, as well as FOXP3/FOXP3 homodimerization by Alphascreen technology according to the manufacturer's instructions (Perkin Elmer, Benelux). AlphaScreen™ is a bead-based technology that is designed to measure the proximity of donor and acceptor beads conjugated to biomolecules of interest.
To measure FOXP3/FOXP3 homodimerization, recombinant Foxp3 was expressed with a Histine tag as disclosed in section (1) above, and captured by Nickel chelate Acceptor beads (Cat. AL108 Perkin Elmer) following manufacturer's instructions. The other version of recombinant FOXP3, expressing a GST tag (prepared as disclosed in section (1) above), was captured by Glutathione Donor beads (Perkin Elmer Cat. 6765300), following manufacturer's instructions. When the two proteins interacted together, the Donor and Acceptor beads come into proximity. Excitation of the Donor beads results in emission of light from the Acceptor beads. […]

Compound	remaining at 20 min, 1 μM [1]	remaining at 1 h, 1 μM [1]	half-life [1]	remaining at 20 min, 1 μM [2]	remaining at 1 h, 1 μM [2]	half-life [2]	inhibition at 20 µM ([3]; read-out: Dimerization inhibition % inhibition (20 μM))	inhibition at 100 µM ([3]; read-out: Dimerization inhibition % inhibition (100 μM))
CSCC[C@H](NC(=O)[C@H](C)NC(=O)[C@H](Cc1ccccc1)NC(=O)[C@H](Cc1ccccc1)NC(=O)[C@@H]1CCCN1C(=O)[C@H](Cc1c[nH]c2ccccc12)NC(=O)[C@H](CCSC)NC(=O)[C@H](CCCCN)NC(=O)[C@H](CCCNC(=N)N)NC(=O)[C@H](Cc1ccccc1)NC(=O)[C@H](CO)NC(=O)[C@H](CCC(N)=O)NC(=O)[C@H](Cc1ccccc1)NC(=O)[C@@H](CC(=O)O)NC(=O)[C@@H](N)CCCNC(=N)N)C(=O)O [compound 3] (H-R[dD]FQSFRKMWPFFAM-OH)	0%	0%	< 2.5 min	0%	0%	< 2.5 min	–	–
CSCC[C@H](NC(=O)[C@H](C)NC(=O)[C@H](Cc1ccccc1)NC(=O)[C@H](Cc1ccccc1)NC(=O)[C@@H]1CCCN1C(=O)[C@H](Cc1c[nH]c2ccccc12)NC(=O)[C@H](CCSC)NC(=O)[C@H](CCCCN)NC(=O)[C@H](CCCNC(=N)N)NC(=O)[C@H](Cc1ccccc1)NC(=O)[C@H](CO)NC(=O)[C@H](CCC(N)=O)NC(=O)[C@H](Cc1ccccc1)NC(=O)[C@H](C)NC(=O)[C@H](N)CCCNC(=N)N)C(=O)O [compound 46] (H-[dR]AFQSFRKMWPFFAM-OH; N-terminus and C-terminus assumed)	–	–	–	–	–	–	90%	–
CSCC[C@@H]1NC(=O)[C@H](C)NC(=O)[C@H](Cc2ccccc2)NC(=O)[C@H](Cc2ccccc2)NC(=O)[C@@H]2CCCN2C(=O)[C@H](Cc2c[nH]c3ccccc23)NC(=O)[C@H](CCSC)NC(=O)[C@H](CCCCN)NC(=O)[C@H](CCCNC(=N)N)NC(=O)[C@H](Cc2ccccc2)NC(=O)[C@H](C)NC(=O)[C@H](CCC(N)=O)NC(=O)[C@H](Cc2ccccc2)NC(=O)[C@H](C)NC(=O)[C@H](CCCNC(=N)N)NC1=O [compound 50] (cyclo(RAFQAFRKMWPFFAM))	12%	0%	8 min	6.2%	0%	5.3 min	–	–
H-RDFQSFRKMWPFFAM-OH [compound 1]	–	–	–	–	–	–	–	59.7%
